The values below are quoted from earlier work in article PMC8198792, “Prediction of Anticancer Peptides with High Efficacy and Low Toxicity by Hybrid Model Based on 3D Structure of Peptides” (International Journal of Molecular Sciences, 2021).

Series [1] concerns erythrocytes. The settings on record: cited from earlier work. The source says:
Supplement ijms-22-05630-s001.zip/Hemloytic Peptides(seguence).xlsx, sheet "HD1" | column: Activity || Supplement ijms-22-05630-s001.zip/Hemloytic Peptides(seguence).xlsx, sheet "HD2" | column: Activity || Supplement ijms-22-05630-s001.zip/Hemloytic Peptides(seguence).xlsx, sheet "HD3" | column: Activity

The subject of series [2] is cancer cell lines. Details: method as in 6 sources, ref CancerPPD [45] and SATPdb ||| ref CancerPPD/SATPdb ||| ref CancerPPD, SATPdb, Swissprot (PDB) ||| ref CancerPPD/SATPdb/Swissprot(PDB) ||| ref CancerPPD / SATPdb ||| ... As to conditions: cited from earlier work. The text has this: Supplement ijms-22-05630-s001.zip/ACPs(seguence).xlsx, sheet "D1" | column: Activity || Supplement ijms-22-05630-s001.zip/ACPs(seguence).xlsx, sheet "D2" | column: Activity || Supplement ijms-22-05630-s001.zip/ACPs(seguence).xlsx, sheet "D3" | column: Activity || (+ 2 further places)

The mark [3] stands for this setting: Hemolytic peptides dataset HD2, label 1 = hemolytic, 0 = non-hemolytic, ref Hemolytik/SATPdb.
The mark [4] stands for this setting: hemolytic peptides dataset HD3, 1 = hemolytic (positive set), 0 = non-hemolytic (negative set), labels taken from databases, ref Hemolytik/SATPdb.
Setting [5] is: ACPs dataset D3 (supplement sheet "D3"), 1 = ACP, 0 = non-ACP, ref CancerPPD [45] and SATPdb.
[6] abbreviates: ACPs dataset D4 (sheet "D4"), label 1 = ACP (CancerPPD ID), 0 = non-ACP (non-anticancer AMP, SATPdb ID), ref CancerPPD [45] and SATPdb.
The mark [7] stands for this setting: ACPs dataset D3 (sheet "D3"), label 1 = ACP, 0 = non-ACP, ref CancerPPD/SATPdb.
Setting [8] is: ACPs dataset D4 (sheet "D4"), label 1 = ACP, 0 = non-ACP, ref CancerPPD / SATPdb.
Where [9] appears, read: ACPs dataset D5, sheet "D5", label 1 = ACP, 0 = non-ACP, ref CancerPPD [45] and SATPdb.
The mark [10] stands for this setting: natural hemolytic peptide dataset HD1, label collected from databases, ref Hemolytik [49], SATPdb [34].
[11] abbreviates: ACPs dataset D1, label 1 = ACP, 0 = non-ACP (non-anticancer AMPs from SATPdb), ref CancerPPD/SATPdb.

Where two headings read alike, the source gives them in different places.

For the substance KWFKKIPKFLHLAKKF [compound 1150], the Activity is recorded as 1 in series [1] (setting [3]); 1 in series [1] (setting [4]); 1 in series [2] (setting [5]); 1 in series [2] (setting [6]); 1 in series [2] (ACPs dataset D5 (sheet "D5"), label 1 = ACP (positive set), 0 = non-ACP (negative set), ref CancerPPD [45] and SATPdb).

Regarding KWFRVYRGIYRRR [satpdb13764], the Activity in series [1], in series [2] (setting [7]), in series [2] (setting [8]) and in series [2] (setting [9]) was 0 throughout.

In the case of KWKKLLKKPLKLLKKLLK [satpdb12290], the Activity is 1 in series [1], 0 in series [2] (setting [7]), 0 in series [2] (setting [8]) and 0 in series [2] (setting [9]).

For KWKKPLLKKLLKKL [satpdb12744], the Activity in series [1] is on record as 1; in series [2] (setting [7]) it was 0; in series [2] (setting [8]), 0; in series [2] (setting [9]), 0.

As to “KWKSFLKTFKSAKKKVLHKALKAISS [satpdb10714]”, the Activity in series [1] (setting [3]) is given as 1; in series [1] (setting [4]), 1; in series [2] (setting [5]), 0; in series [2] (setting [8]) it was 0; in series [2] (setting [9]), 0.

On to “KWKSFLKTFKSAKKTVLHTALKLISS [satpdb12569]”, for which the Activity is 1 in series [1], 0 in series [2] (setting [7]), 0 in series [2] (setting [8]) and 0 in series [2] (setting [9]).

As to KfKLKQ [satpdb10387], the Activity in series [1] (setting [3]), in series [1] (setting [4]), in series [2] (setting [5]), in series [2] (setting [8]) and in series [2] (setting [9]) was 0 throughout.

On to “LALKSGGWLRLFGLKDKKH [satpdb12814, hemolytic peptide, dataset HD1]”, for which the Activity in series [1] (setting [4]) is on record as 1; in series [2] (setting [11]) it was 0; in series [2] (setting [8]), 0. The “Activity (dataset HD1, hemolytic 1 / non-hemolytic 0)” value in series [1] (setting [10]) is on record as 1.

As for LKKLLKWLKKL [satpdb13099], the Activity in series [1] is 1; in series [2] (setting [7]), 0; in series [2] (setting [8]), 0; in series [2] (setting [9]) it was 0.

For the substance LKWLLKWLL [satpdb12315], the Activity is recorded as 1 in series [1] (setting [3]); 1 in series [1] (setting [4]); 0 in series [2] (setting [7]); 0 in series [2] (setting [8]); 0 in series [2] (setting [9]).

For the substance LLIILKKKWKKQAKAKSK [satpdb13450], the Activity in series [1] (setting [3]) is 1; in series [1] (setting [4]), 1; in series [2] (setting [7]) it was 0; in series [2] (setting [8]), 0; in series [2] (setting [9]), 0.

Turning to LLIILRRRWRKQAKAKSK [satpdb12920], the Activity was 1 in series [1], 0 in series [2] (setting [7]), 0 in series [2] (setting [8]) and 0 in series [2] (setting [9]).

For LLIILRRRWRKQARARSK [satpdb13104], the Activity in series [1] was 1; in series [2] (setting [7]), 0; in series [2] (setting [8]) it was 0; in series [2] (setting [9]), 0.

Regarding LLIILRRRWRRQARARSR [satpdb11798], the Activity in series [1] is recorded as 1; in series [2] (setting [5]) it was 0; in series [2] (setting [8]), 0; in series [2] (setting [9]), 0.

With “LLLFLLKKRKKRKY [satpdb12213, hemolytic peptide, dataset HD1]”, the results for the Activity in series [1], in series [2] (setting [11]) and in series [2] (setting [6]) were 1, 0 and 0, respectively. Further, in series [1], the “Activity (dataset HD1, hemolytic 1 / non-hemolytic 0)” value was 1.

On to LNWGALLKHLLK [satpdb12233], for which the Activity in series [1] is on record as 1; in series [2] (setting [7]), 0; in series [2] (setting [8]) it was 0; in series [2] (setting [9]), 0.

As to “MQFITDLIKKAVDFFKGLFGNK [satpdb11952, hemolytic peptide, dataset HD1]”, the results for the Activity in series [1] (setting [4]), in series [2] (setting [11]) and in series [2] (setting [6]) were 1, 0 and 0, respectively. In addition, the “Activity (dataset HD1, hemolytic 1 / non-hemolytic 0)” value in series [1] (setting [10]) was 1.

As to “PICKRNGLPVCGETCTLGTCYTQGCTCSW [satpdb10279, hemolytic peptide, dataset HD1]”, the Activity in series [1] (setting [4]) is 1; in series [2] (setting [11]), 0; in series [2] (setting [6]), 0. The “Activity (dataset HD1, hemolytic 1 / non-hemolytic 0)” value in series [1] (setting [10]) is 1.

Turning to “QLKVDLWGTRSGIQPEQHSSGKSDVRRWRSRY [satpdb10403]”, the Activity in series [1], in series [2] (setting [5]), in series [2] (setting [8]) and in series [2] (setting [9]) was 0 in each case.

As for “QPTRRPRPGTGPGRRPRPRPRP [satpdb11920, non-hemolytic peptide, dataset HD1]”, the Activity in series [1], in series [2] (setting [11]) and in series [2] (setting [6]) was 0 in each case. The “Activity (dataset HD1, hemolytic 1 / non-hemolytic 0)” value in series [1] is on record as 0.

In the case of “RFGRFLRKIRRFRPKVTITIQGSARFG [satpdb11815, hemolytic peptide, dataset HD1]”, the Activity in series [1] was 1; in series [2] (setting [11]), 0; in series [2] (setting [6]) it was 0. Moreover, the “Activity (dataset HD1, hemolytic 1 / non-hemolytic 0)” value in series [1] is 1.

In the case of RKLRRLKRKIAHKVKKY [satpdb10022], the Activity in series [1], in series [2] (setting [5]), in series [2] (setting [8]) and in series [2] (setting [9]) was 0 each time.

For the substance “RLKELITTGGQKIGEKIRRIGQRIKDFFKNLQPREEKS [satpdb11766, hemolytic peptide, dataset HD1]”, the Activity in series [1] is reported as 1; in series [2] (setting [11]), 0; in series [2] (setting [6]), 0. In addition, the “Activity (dataset HD1, hemolytic 1 / non-hemolytic 0)” value in series [1] is listed as 1.

For the substance RRWPWWPWKWPLI [satpdb10003], the Activity is 1 in series [1], 0 in series [2] (setting [5]), 0 in series [2] (setting [8]) and 0 in series [2] (setting [9]).

“RWSVYAYVRVRGVLVRYRRSW [satpdb10414, hemolytic peptide, dataset HD1]”: the Activity in series [1] is on record as 1; in series [2] (ACPs dataset D1, 1 = ACP (positive), 0 = non-ACP (negative), label taken from databases, ref CancerPPD [45] and SATPdb), 0; in series [2] (setting [6]), 0. Moreover, the “Activity (dataset HD1, hemolytic 1 / non-hemolytic 0)” value in series [1] is recorded as 1.

“TSRCIFYRRKKCS [satpdb13333, hemolytic peptide, dataset HD1]”: the Activity in series [1] was 1; in series [2] (setting [11]), 0; in series [2] (setting [8]) it was 0. Moreover, the “Activity (dataset HD1, hemolytic 1 / non-hemolytic 0)” value in series [1] was 1.

As to “VCGETCFGGTCNTPGCSCTWPICTRDGLP [satpdb10452, hemolytic peptide, dataset HD1]”, the Activity is 1 in series [1] (setting [4]), 0 in series [2] (setting [11]) and 0 in series [2] (setting [6]). In addition, the “Activity (dataset HD1, hemolytic 1 / non-hemolytic 0)” value in series [1] (setting [10]) is recorded as 1.

As to “VFQFLGKIIHHVGNFVHGFSHVF [satpdb12167, hemolytic peptide, dataset HD1]”, the Activity in series [1] (setting [4]) was 1; in series [2] (setting [11]) it was 0; in series [2] (setting [6]), 0. In addition, in series [1] (setting [10]), the “Activity (dataset HD1, hemolytic 1 / non-hemolytic 0)” value is on record as 1.

With VKLGVyPLKVKLyP [satpdb12769], the Activity in series [1] is 1; in series [2] (setting [7]), 0; in series [2] (setting [8]), 0; in series [2] (setting [9]), 0.

VKLKVyPLKVKLyP [satpdb10236]: the Activity in series [1] is 1; in series [2] (setting [5]), 0; in series [2] (setting [8]) it was 0; in series [2] (setting [9]), 0.

Turning to VKLKVyPLKvKLyP [satpdb12258], the Activity is reported as 1 in series [1] (setting [3]); 1 in series [1] (setting [4]); 0 in series [2] (setting [7]); 0 in series [2] (setting [8]); 0 in series [2] (setting [9]).

As for VKLKVypLKVKLyP [satpdb10873], the Activity in series [1] (setting [3]) is 1; in series [1] (setting [4]) it was 1; in series [2] (setting [5]) it was 0; in series [2] (setting [8]) it was 0; in series [2] (setting [9]) it was 0.

For VKLkVyPLKVKLyP [satpdb13685], the Activity in series [1] is 1; in series [2] (setting [7]), 0; in series [2] (setting [8]), 0; in series [2] (setting [9]) it was 0.

In the case of VKLyPVKLyP [satpdb11941], the Activity in series [1] (setting [3]) is 1; in series [1] (setting [4]), 1; in series [2] (setting [5]) it was 0; in series [2] (setting [8]), 0; in series [2] (setting [9]), 0.

As for VKlKVyPLKVKLyP [satpdb13308], the Activity in series [1] is recorded as 1; in series [2] (setting [7]) it was 0; in series [2] (setting [8]), 0; in series [2] (setting [9]), 0.
